What was measured:
[1] = system: RXF 393; experiment: NCI cytotoxicity screen, Renal Cancer panel; assay type: cell-based; settings: Homo sapiens, single dose 10 µM, negative = lethal, read-out: Percent growth inhibition
Protocol: (§1) Cytotoxicity was performed at National Cancer Institute (NCI), Bethesda, USA as per their protocols.

[2] = system: SN12C; experiment: NCI cytotoxicity screen, Renal Cancer panel; assay type: cell-based; settings: Homo sapiens, single dose 10 µM, negative = lethal, read-out: Percent growth inhibition
Protocol: as §1

[3] = system: UO-31; experiment: NCI cytotoxicity screen, Renal Cancer panel; assay type: cell-based; settings: Homo sapiens, single dose 10 µM, negative = lethal, read-out: Percent growth inhibition
Protocol: as §1

[4] = system: ACHN; experiment: NCI cytotoxicity screen, Renal Cancer panel; assay type: cell-based; settings: Homo sapiens, single dose 10 µM, negative = lethal, read-out: Percent growth inhibition
Protocol: as §1

[5] = system: A498; experiment: NCI cytotoxicity screen, Renal Cancer panel; assay type: cell-based; settings: Homo sapiens, single dose 10 µM, negative = lethal, read-out: Percent growth inhibition
Protocol: as §1

[6] = system: CAKI-1; experiment: NCI cytotoxicity screen, Renal Cancer panel; assay type: cell-based; settings: Homo sapiens; CAKI-1; single dose 10 µM; negative = lethal; read-out: Percent growth inhibition
Protocol: as §1

[7] = system: HT29; experiment: NCI cytotoxicity screen, Colon Cancer panel; assay type: cell-based; settings: Homo sapiens, HT-29; HT29; single dose 10 µM; negative = lethal; read-out: Percent growth inhibition
Protocol: as §1

[8] = system: COLO 205; experiment: NCI cytotoxicity screen, Colon Cancer panel; assay type: cell-based; settings: Homo sapiens, single dose 10 µM, negative = lethal, read-out: Percent growth inhibition
Protocol: as §1

[9] = system: HCT-116; experiment: NCI cytotoxicity screen, Colon Cancer panel; assay type: cell-based; settings: Homo sapiens, single dose 10 µM, negative = lethal, read-out: Percent growth inhibition
Protocol: as §1

[10] = system: HCT-15; experiment: NCI cytotoxicity screen, Colon Cancer panel; assay type: cell-based; settings: Homo sapiens, single dose 10 µM, negative = lethal, read-out: Percent growth inhibition
Protocol: as §1

[11] = Experimental log P, shake-flask method; assay type: physicochemical; settings: n-octanol/phosphate buffer pH 7.4, read-out: Exp. Log P
Procedure, shortened: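 Shake-flask partitioning between n-octanol and phosphate buffer pH 7.4, shaken 50 min, then centrifuged 35 min at 2500 rpm. Buffer-phase absorbance at each compound's λmax measured before and after partitioning. P calculated from absorbance drop and phase volume ratio.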

[12] = system: MCF7; experiment: NCI cytotoxicity screen, Breast Cancer panel; assay type: cell-based; settings: Homo sapiens, single dose 10 µM, negative = lethal, read-out: Percent growth inhibition
Protocol: as §1

[13] = system: BT-549; experiment: NCI cytotoxicity screen, Breast Cancer panel; assay type: cell-based; settings: Homo sapiens, single dose 10 µM, negative = lethal, read-out: Percent growth inhibition
Protocol: as §1

[14] = system: MDA-MB-468; experiment: NCI cytotoxicity screen, Breast Cancer panel; assay type: cell-based; settings: Homo sapiens, single dose 10 µM, negative = lethal, read-out: Percent growth inhibition
Protocol: as §1

[15] = system: T-47D; experiment: NCI cytotoxicity screen, Breast Cancer panel; assay type: cell-based; settings: Homo sapiens, T47D, T-47D; single dose 10 µM; negative = lethal; read-out: Percent growth inhibition
Protocol: as §1

[16] = system: MDA-MB-231/ATCC; experiment: NCI cytotoxicity screen, Breast Cancer panel; assay type: cell-based; settings: Homo sapiens, MDA-MB-231, read-out: Percent growth inhibition
Protocol: as §1

[17] = system: HS 578 T; experiment: NCI cytotoxicity screen, Breast Cancer panel; assay type: cell-based; settings: Homo sapiens; HS 578T; single dose 10 µM; negative = lethal; read-out: Percent growth inhibition
Protocol: as §1

[18] = system: NCI/ADR-RES; experiment: NCI cytotoxicity screen, Ovarian Cancer panel; assay type: cell-based; settings: Homo sapiens, single dose 10 µM, negative = lethal, read-out: Percent growth inhibition
Protocol: as §1

[19] = system: OVCAR-5; experiment: NCI cytotoxicity screen, Ovarian Cancer panel; assay type: cell-based; settings: Homo sapiens, single dose 10 µM, negative = lethal, read-out: Percent growth inhibition
Protocol: as §1

[20] = system: OVCAR-8; experiment: NCI cytotoxicity screen, Ovarian Cancer panel; assay type: cell-based; settings: Homo sapiens, single dose 10 µM, negative = lethal, read-out: Percent growth inhibition
Protocol: as §1

[21] = system: SK-OV-3; experiment: NCI cytotoxicity screen, Ovarian Cancer panel; assay type: cell-based; settings: Homo sapiens, single dose 10 µM, negative = lethal, read-out: Percent growth inhibition
Protocol: as §1

[22] = system: IGROV1; experiment: NCI cytotoxicity screen, Ovarian Cancer panel; assay type: cell-based; settings: Homo sapiens, IGROV-1, single dose 10 µM, negative = lethal, read-out: Percent growth inhibition
Protocol: as §1

[23] = system: OVCAR-4; experiment: NCI cytotoxicity screen, Ovarian Cancer panel; assay type: cell-based; settings: Homo sapiens; OVCAR-4; single dose 10 µM; negative = lethal; read-out: Percent growth inhibition
Protocol: as §1

[24] = system: UACC-257; experiment: NCI cytotoxicity screen, Melanoma panel; assay type: cell-based; settings: Homo sapiens, single dose 10 µM, negative = lethal, read-out: Percent growth inhibition
Protocol: as §1

[25] = system: MALME-3M; experiment: NCI cytotoxicity screen, Melanoma panel; assay type: cell-based; settings: Homo sapiens; MALME-3M; single dose 10 µM; negative = lethal; read-out: Percent growth inhibition
Protocol: as §1

[26] = system: SK-MEL-28; experiment: NCI cytotoxicity screen, Melanoma panel; assay type: cell-based; settings: Homo sapiens, single dose 10 µM, negative = lethal, read-out: Percent growth inhibition
Protocol: as §1

[27] = system: SK-MEL-5; experiment: NCI cytotoxicity screen, Melanoma panel; assay type: cell-based; settings: Homo sapiens, single dose 10 µM, negative = lethal, read-out: Percent growth inhibition
Protocol: as §1

[28] = system: SK-MEL-2; experiment: NCI cytotoxicity screen, Melanoma panel; assay type: cell-based; settings: Homo sapiens, single dose 10 µM, negative = lethal, read-out: Percent growth inhibition
Protocol: as §1

[29] = system: MDA-MB-435; experiment: NCI cytotoxicity screen, Melanoma panel; assay type: cell-based; settings: Homo sapiens, MDA-MB-435, read-out: Percent growth inhibition
Protocol: as §1

[30] = system: DU-145; experiment: NCI cytotoxicity screen, Prostate Cancer panel; assay type: cell-based, human; settings: Homo sapiens, single dose 10 µM, negative = lethal, read-out: Percent growth inhibition
Protocol: as §1

[31] = system: PC-3; experiment: NCI cytotoxicity screen, Prostate Cancer panel; assay type: cell-based, human; settings: Homo sapiens, single dose 10 µM, negative = lethal, read-out: Percent growth inhibition
Protocol: as §1

[32] = system: M14; experiment: NCI cytotoxicity screen, Melanoma panel; assay type: cell-based, human; settings: Homo sapiens, single dose 10 µM, negative = lethal, read-out: Percent growth inhibition
Protocol: as §1

[33] = system: UACC-62; experiment: NCI cytotoxicity screen, Melanoma panel; assay type: cell-based, human; settings: Homo sapiens, single dose 10 µM, negative = lethal, read-out: Percent growth inhibition
Protocol: as §1

[34] = system: LOX IMVI; experiment: NCI cytotoxicity screen, Melanoma panel; assay type: cell-based, human; settings: Homo sapiens, single dose 10 µM, negative = lethal, read-out: Percent growth inhibition
Protocol: as §1

[35] = system: NCI-H23; experiment: NCI cytotoxicity screen, Non-Small Cell Lung Cancer panel; assay type: cell-based, human; settings: Homo sapiens, single dose 10 µM, negative = lethal, read-out: Percent growth inhibition
Protocol: as §1

[36] = system: NCI-H322M; experiment: as above; assay type: cell-based, human; settings: Homo sapiens, single dose 10 µM, negative = lethal, read-out: Percent growth inhibition
Protocol: as §1

[37] = system: NCI-H226; experiment: as above; assay type: cell-based, human; settings: Homo sapiens, single dose 10 µM, negative = lethal, read-out: Percent growth inhibition
Protocol: as §1

[38] = system: NCI-522; experiment: as above; assay type: cell-based, human; settings: Homo sapiens; NCI-522; single dose 10 µM; negative = lethal; read-out: Percent growth inhibition
Protocol: as §1

[39] = system: OVCAR-3; experiment: NCI cytotoxicity screen, Ovarian Cancer panel; assay type: cell-based, human; settings: Homo sapiens; OVCAR-3; single dose 10 µM; negative = lethal; read-out: Percent growth inhibition
Protocol: as §1

[40] = system: A549/ATCC; experiment: NCI cytotoxicity screen, Non-Small Cell Lung Cancer panel; assay type: cell-based; settings: Homo sapiens; A549/ATCC; single dose 10 µM; negative = lethal; read-out: Percent growth inhibition
Protocol: as §1

[41] = system: NCI-H460; experiment: as above; assay type: cell-based; settings: Homo sapiens, single dose 10 µM, negative = lethal, read-out: Percent growth inhibition
Protocol: as §1

[42] = system: EXVX; experiment: as above; assay type: cell-based; settings: Homo sapiens; EXVX; single dose 10 µM; negative = lethal; read-out: Percent growth inhibition
Protocol: as §1

[43] = system: HOP-62; experiment: as above; assay type: cell-based; settings: Homo sapiens, single dose 10 µM, negative = lethal, read-out: Percent growth inhibition
Protocol: as §1

With `c1ccc2c(-c3cn4ccnc4c(-c4ccc5c(c4)ncn5C4CCCCC4)n3)cccc2c1` [Compound 12, 8-(1-cyclohexyl-1H-benzo[d]imidazol-5-yl)-6-(naphthalen-1-yl)imidazo[1,2-a]pyrazine] the inhibition at 10 µM [1] was 0.15%, the inhibition at 10 µM [2] was 13.6% and the inhibition at 10 µM [3] was 37.9%. For the same compound, the inhibition at 10 µM [4] was 8.22%, the inhibition at 10 µM [5] was under 1% and the inhibition at 10 µM [6] was 20.7%. It also gave an inhibition at 10 µM [7] of 16.5%, an inhibition at 10 µM [8] of under 1% and an inhibition at 10 µM [9] of 23.7%. For the same compound, the inhibition at 10 µM [10] was 15.3%, the logP [11] was 1.48 and the inhibition at 10 µM [12] was 35.7%. It also gave an inhibition at 10 µM [13] of 1.57%, an inhibition at 10 µM [14] of 5.23% and an inhibition at 10 µM [15] of 22%. For the same compound, the inhibition at 10 µM [16] was 18.2%, the inhibition at 10 µM [17] was 4.25% and the inhibition at 10 µM [18] was 11.8%. The inhibition at 10 µM [19] was under 1%, the inhibition at 10 µM [20] was 24% and the inhibition at 10 µM [21] was under 1%. For the same compound, the inhibition at 10 µM [22] was 3.68%, the inhibition at 10 µM [23] was 15% and the inhibition at 10 µM [24] was 35.5%. The inhibition at 10 µM [25] was under 1%, the inhibition at 10 µM [26] was under 1% and the inhibition at 10 µM [27] was 2.13%. The inhibition at 10 µM [28] was 20.6%, the inhibition at 10 µM [29] was 4.07% and the inhibition at 10 µM [30] was 6.09%. The inhibition at 10 µM [31] was 13.3%, the inhibition at 10 µM [32] was 0.39% and the inhibition at 10 µM [33] was 21%. For the same compound, the inhibition at 10 µM [34] was 11.4%, the inhibition at 10 µM [35] was 9.02% and the inhibition at 10 µM [36] was 8.38%. It also gave an inhibition at 10 µM [37] of 17.9%, an inhibition at 10 µM [38] of 33% and an inhibition at 10 µM [39] of 4.29%. It also gave an inhibition at 10 µM [40] of 36.2%, an inhibition at 10 µM [41] of 7.35% and an inhibition at 10 µM [42] of 29.6%. The inhibition at 10 µM [43] was 13.2%.
